In ChEMBL document CHEMBL2046386, “Potent and selective aminopyrimidine-based B-Raf inhibitors with favorable physicochemical and pharmacokinetic properties” (J Med Chem, 2012):
Values after ≈ are worked out from the molar mass of the structure shown.

Legend:
[1] = Cmax in mouse at 1 mg/kg, po dosed as crystalline suspension in 20%HPBCD vehicle (20% hydroxypropyl-beta-cyclodextrin/80% water); type: ADME, organism-based; parameters: dose 1 mg/kg, route oral; settings: in vivo
[2] = AUC in mouse at 1 mg/kg, po dosed as crystalline suspension in 20%HPBCD vehicle (20% hydroxypropyl-beta-cyclodextrin/80% water); type: ADME, organism-based; parameters: dose 1 mg/kg, route oral; settings: plasma
[3] = Oral bioavailability in mouse at 1 mg/kg dosed as crystalline suspension in 20%HPBCD vehicle (20% hydroxypropyl-beta-cyclodextrin/80% water); type: ADME, organism-based; settings: in vivo
[4] = Cmax in mouse at 10 mg/kg, po dosed as crystalline suspension in 20%HPBCD vehicle (20% hydroxypropyl-beta-cyclodextrin/80% water); type: ADME, organism-based; parameters: dose 10 mg/kg, route oral; settings: in vivo
[5] = AUC in mouse at 10 mg/kg, po dosed as crystalline suspension in 20%HPBCD vehicle (20% hydroxypropyl-beta-cyclodextrin/80% water); type: ADME, organism-based; parameters: dose 10 mg/kg, route oral; settings: plasma
[6] = Oral bioavailability in mouse at 10 mg/kg dosed as crystalline suspension in 20%HPBCD vehicle (20% hydroxypropyl-beta-cyclodextrin/80% water); type: ADME, organism-based; settings: in vivo
[7] = Cmax in mouse at 30 mg/kg, po dosed as crystalline suspension in 20%HPBCD vehicle (20% hydroxypropyl-beta-cyclodextrin/80% water); type: ADME, organism-based; parameters: dose 30 mg/kg, route oral; settings: in vivo
[8] = Cmax in mouse at 50 mg/kg, po dosed as crystalline suspension in 20%HPBCD vehicle (20% hydroxypropyl-beta-cyclodextrin/80% water); type: ADME, organism-based; parameters: dose 50 mg/kg, route oral; settings: in vivo
[9] = AUC in mouse at 50 mg/kg, po dosed as crystalline suspension in 20%HPBCD vehicle (20% hydroxypropyl-beta-cyclodextrin/80% water); type: ADME, organism-based; parameters: dose 50 mg/kg, route oral; settings: plasma
Cytochrome P450 2C9 = Cytochrome P450 2C9 (Homo sapiens, UniProt P11712); assay: Inhibition of CYP2C9; type: ADME
Sequence of Cytochrome P450 2C9 (P11712 whole entry): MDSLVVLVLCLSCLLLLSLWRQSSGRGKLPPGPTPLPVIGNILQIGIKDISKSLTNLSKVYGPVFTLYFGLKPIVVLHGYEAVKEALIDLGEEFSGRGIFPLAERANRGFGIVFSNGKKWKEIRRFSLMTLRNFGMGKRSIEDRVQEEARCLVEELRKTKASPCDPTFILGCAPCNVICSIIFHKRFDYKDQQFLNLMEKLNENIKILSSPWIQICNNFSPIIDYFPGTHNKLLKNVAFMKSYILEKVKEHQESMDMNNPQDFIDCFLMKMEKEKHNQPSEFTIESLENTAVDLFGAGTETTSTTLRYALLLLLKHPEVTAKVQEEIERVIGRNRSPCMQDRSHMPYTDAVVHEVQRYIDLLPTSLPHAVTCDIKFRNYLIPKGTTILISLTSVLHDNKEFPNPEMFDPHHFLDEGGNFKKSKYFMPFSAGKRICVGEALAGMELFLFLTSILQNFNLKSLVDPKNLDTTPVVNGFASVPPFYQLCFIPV

[10] = Inhibition of cytochrome P450; type: ADME
[11] = biological target: Voltage-gated inwardly rectifying potassium channel KCNH2 (Homo sapiens, UniProt Q12809); assay: Inhibition of human Erg
Sequence of Voltage-gated inwardly rectifying potassium channel KCNH2 (Q12809 whole entry): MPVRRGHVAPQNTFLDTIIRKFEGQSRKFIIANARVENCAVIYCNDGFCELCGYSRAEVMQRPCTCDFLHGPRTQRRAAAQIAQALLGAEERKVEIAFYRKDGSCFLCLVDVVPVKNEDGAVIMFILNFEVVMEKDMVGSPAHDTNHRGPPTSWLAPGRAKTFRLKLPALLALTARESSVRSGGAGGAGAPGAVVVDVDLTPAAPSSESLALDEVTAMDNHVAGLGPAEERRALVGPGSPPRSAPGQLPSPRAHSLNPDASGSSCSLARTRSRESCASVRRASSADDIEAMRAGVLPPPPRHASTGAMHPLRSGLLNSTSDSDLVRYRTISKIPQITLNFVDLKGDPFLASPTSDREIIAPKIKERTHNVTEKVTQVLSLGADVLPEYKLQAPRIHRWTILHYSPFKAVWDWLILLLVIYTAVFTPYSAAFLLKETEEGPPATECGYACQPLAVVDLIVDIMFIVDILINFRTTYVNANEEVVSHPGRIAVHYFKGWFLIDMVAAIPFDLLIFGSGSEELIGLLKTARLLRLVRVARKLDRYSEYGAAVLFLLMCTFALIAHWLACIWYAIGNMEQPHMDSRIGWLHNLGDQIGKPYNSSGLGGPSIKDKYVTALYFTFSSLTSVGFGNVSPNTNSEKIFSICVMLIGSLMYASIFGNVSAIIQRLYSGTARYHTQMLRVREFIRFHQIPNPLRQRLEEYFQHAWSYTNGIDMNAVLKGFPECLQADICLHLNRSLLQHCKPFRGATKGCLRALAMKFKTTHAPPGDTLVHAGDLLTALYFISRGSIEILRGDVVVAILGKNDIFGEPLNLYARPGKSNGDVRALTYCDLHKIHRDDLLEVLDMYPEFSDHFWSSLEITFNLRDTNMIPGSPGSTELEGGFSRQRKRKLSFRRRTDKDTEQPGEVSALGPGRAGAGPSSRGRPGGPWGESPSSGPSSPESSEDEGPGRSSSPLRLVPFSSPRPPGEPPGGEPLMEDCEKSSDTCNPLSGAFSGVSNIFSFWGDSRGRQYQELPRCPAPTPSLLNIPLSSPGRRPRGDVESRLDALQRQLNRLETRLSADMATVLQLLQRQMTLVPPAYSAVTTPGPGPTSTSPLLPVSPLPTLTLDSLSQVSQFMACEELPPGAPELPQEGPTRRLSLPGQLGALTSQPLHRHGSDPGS

Salmonella typhimurium = assay: Induction of mutagenesis in Salmonella typhimurium by Ames test; type: toxicity, organism-based; settings: salmonella enterica subsp. enterica serovar typhimurium
COLO 205 [12] = assay: Antitumor activity against human COLO205 cells expressing B-raf V600E mutant xenografted in po dosed NCr nude mouse assessed as decrease in tumor volume administered once daily for 21 days measured twice a week up to 21 days; type: functional; settings: for ED50 / ED90: Mus musculus, COLO 205, po, 504 h
Mus musculus = assay: Toxicity in NCr nude mouse xenografted with human COLO205 cells expressing B-raf V600E mutant assessed as adverse effects; type: organism-based, COLO 205; settings: in vivo
[13] = Time-dependent inhibition of cytochrome P450; type: ADME
[14] = biological target: T1, Serine/threonine-protein kinase B-raf (Homo sapiens, UniProt P15056, V600E); assay: Inhibition of His6X-tagged human B-raf V600E mutant expressed in baculovirus infected insect cells coexpressing […] using [gamma33P]ATP after 60 mins by scintillation counting in presence of 1 mM ATP
T1 sequence (P15056 2-766 V600E limits assumed): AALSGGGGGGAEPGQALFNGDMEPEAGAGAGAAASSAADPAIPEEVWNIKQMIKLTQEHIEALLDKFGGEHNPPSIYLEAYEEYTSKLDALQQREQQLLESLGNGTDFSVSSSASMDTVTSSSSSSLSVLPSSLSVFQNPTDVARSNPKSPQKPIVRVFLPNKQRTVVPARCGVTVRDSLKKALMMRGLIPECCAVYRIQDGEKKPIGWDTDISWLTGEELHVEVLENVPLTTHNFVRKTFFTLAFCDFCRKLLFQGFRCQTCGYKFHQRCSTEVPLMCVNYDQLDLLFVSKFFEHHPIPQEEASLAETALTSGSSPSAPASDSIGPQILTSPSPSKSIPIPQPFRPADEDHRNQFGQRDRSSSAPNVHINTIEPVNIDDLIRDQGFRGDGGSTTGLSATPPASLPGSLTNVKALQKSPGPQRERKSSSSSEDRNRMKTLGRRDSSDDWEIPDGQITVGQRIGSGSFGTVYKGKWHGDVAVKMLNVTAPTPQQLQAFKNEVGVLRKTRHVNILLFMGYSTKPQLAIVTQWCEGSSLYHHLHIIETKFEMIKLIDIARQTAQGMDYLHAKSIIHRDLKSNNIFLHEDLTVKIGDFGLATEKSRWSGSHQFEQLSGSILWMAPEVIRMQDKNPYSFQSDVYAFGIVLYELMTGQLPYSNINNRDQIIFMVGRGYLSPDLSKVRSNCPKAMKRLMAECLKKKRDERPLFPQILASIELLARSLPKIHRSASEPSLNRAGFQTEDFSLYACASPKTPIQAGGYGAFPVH

[15] = AUC in mouse at 30 mg/kg, po dosed as crystalline suspension in 20%HPBCD vehicle (20% hydroxypropyl-beta-cyclodextrin/80% water); type: ADME, organism-based; parameters: dose 30 mg/kg, route oral; settings: plasma
[16] = Oral bioavailability in mouse at 30 mg/kg dosed as crystalline suspension in 20%HPBCD vehicle (20% hydroxypropyl-beta-cyclodextrin/80% water); type: ADME, organism-based; settings: in vivo
[17] = biological target: T1, Serine/threonine-protein kinase B-raf; assay: Inhibition of His6X-tagged human B-raf V600E mutant expressed in baculovirus infected insect cells coexpressing […] using [gamma33P]ATP after 60 mins by scintillation counting
[18] = biological target: T1, Serine/threonine-protein kinase B-raf; assay: Inhibition of B-raf V600E mutant-mediated Erk phosphorylation in human MALM-3M cells by fluorometric analysis; type: cell-based
[19] = Dissociation constant, pKa of the compound at basic pH; type: physicochemical
[20] = Thermodynamic solubility of the compound at 0.5 mg/ml after 24 hrs by shake flask method at pH 1.2; type: physicochemical; settings: buffer, read-out: Therm_solubility
[21] = Thermodynamic solubility of the compound at 0.5 mg/ml after 24 hrs by shake flask method at pH 6.5; type: physicochemical; settings: buffer, read-out: Therm_solubility
[22] = Clearance in mouse at 2.5 mg/kg, iv; type: ADME, organism-based; parameters: dose 2.5 mg/kg, route intravenous; settings: in vivo
[23] = Volume of distribution at steady state in mouse at 2.5 mg/kg, iv; type: ADME, organism-based; parameters: dose 2.5 mg/kg, route intravenous; settings: in vivo, read-out: Vdss
[24] = Plasma protein binding in mouse; type: ADME, cell-free; settings: read-out: PPB (converted)
[25] = Lipophilicity, log P of the compound; type: physicochemical; settings: octanol/water
[26] = biological target: Serine/threonine-protein kinase B-raf (Homo sapiens, UniProt P15056); assay: Inhibition of wild type B-raf in presence of 1 mM ATP
Sequence of Serine/threonine-protein kinase B-raf (Homo sapiens, UniProt P15056) (P15056 whole entry): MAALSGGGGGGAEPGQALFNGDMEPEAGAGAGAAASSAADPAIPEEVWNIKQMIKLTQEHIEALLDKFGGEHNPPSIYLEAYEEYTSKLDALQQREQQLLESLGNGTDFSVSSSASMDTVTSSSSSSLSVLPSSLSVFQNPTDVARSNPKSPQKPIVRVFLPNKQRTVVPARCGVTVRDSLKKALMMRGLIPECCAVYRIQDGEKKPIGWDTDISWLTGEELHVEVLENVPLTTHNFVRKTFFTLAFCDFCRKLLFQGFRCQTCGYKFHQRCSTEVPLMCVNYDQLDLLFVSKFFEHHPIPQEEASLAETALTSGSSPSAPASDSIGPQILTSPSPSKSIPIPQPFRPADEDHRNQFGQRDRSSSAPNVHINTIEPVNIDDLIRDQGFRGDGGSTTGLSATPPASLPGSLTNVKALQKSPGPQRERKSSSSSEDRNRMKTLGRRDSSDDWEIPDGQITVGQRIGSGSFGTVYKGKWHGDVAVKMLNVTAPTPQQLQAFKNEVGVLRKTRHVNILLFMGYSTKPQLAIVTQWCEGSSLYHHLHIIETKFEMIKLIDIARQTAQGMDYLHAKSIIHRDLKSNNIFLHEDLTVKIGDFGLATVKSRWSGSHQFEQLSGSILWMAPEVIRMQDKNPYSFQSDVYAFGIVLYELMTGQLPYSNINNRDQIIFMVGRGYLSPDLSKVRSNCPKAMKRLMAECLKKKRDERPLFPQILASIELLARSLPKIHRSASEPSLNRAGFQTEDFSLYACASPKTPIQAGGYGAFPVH

[27] = biological target: RAF proto-oncogene serine/threonine-protein kinase (Homo sapiens, UniProt P04049); assay: Inhibition of wild type C-raf in presence of 1 mM ATP
Sequence of RAF proto-oncogene serine/threonine-protein kinase (P04049 whole entry): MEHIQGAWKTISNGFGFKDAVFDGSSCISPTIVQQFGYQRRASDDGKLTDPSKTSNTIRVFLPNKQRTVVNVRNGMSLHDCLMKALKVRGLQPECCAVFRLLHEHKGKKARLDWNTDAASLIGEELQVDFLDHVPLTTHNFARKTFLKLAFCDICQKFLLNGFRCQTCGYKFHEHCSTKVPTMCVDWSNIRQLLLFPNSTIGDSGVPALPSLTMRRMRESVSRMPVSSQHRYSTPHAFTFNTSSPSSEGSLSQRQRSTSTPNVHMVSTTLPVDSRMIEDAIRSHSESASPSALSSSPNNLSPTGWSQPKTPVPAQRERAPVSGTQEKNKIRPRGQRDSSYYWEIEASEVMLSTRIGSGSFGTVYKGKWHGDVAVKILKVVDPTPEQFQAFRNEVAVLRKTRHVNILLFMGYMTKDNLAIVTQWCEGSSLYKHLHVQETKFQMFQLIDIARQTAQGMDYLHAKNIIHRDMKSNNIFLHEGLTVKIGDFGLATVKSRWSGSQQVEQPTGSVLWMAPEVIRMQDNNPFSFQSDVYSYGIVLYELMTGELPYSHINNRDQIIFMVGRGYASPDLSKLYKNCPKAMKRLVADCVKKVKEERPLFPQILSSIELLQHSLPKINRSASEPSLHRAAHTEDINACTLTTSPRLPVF

Homo sapiens [28] = organism: Homo sapiens; assay: Selectivity index, ratio of IC50 for wild-type B-raf to IC50 for human Braf V600E mutant
Homo sapiens [29] = organism: Homo sapiens; assay: Selectivity index, ratio of IC50 for wild-type C-raf to IC50 for human Braf V600E mutant
[30] = Antiproliferative activity against human A375.X1 cells expressing B-raf V600E mutant; type: functional, cell-based
COLO 205 [31] = assay: Antiproliferative activity against human COLO205 cells expressing B-raf V600E mutant; type: functional, cell-based
HT-29 = assay: Antiproliferative activity against human HT-29 cells expressing B-raf V600E mutant and high level of EGFR; type: functional, cell-based
RKO = assay: Antiproliferative activity against PTEN-deficient human RKO cells expressing B-raf V600E mutant and high level of EGFR; type: functional, cell-based
NCI-H226 = assay: Antiproliferative activity against human NCI-H226 cells expressing wild-type B-raf; type: functional, cell-based
[32] = Clearance in rat at 1 mg/kg, iv dosed as crystalline suspension in 20%HPBCD vehicle (20% hydroxypropyl-beta-cyclodextrin/80% water); type: ADME, organism-based; parameters: dose 1 mg/kg, route intravenous; settings: in vivo
[33] = Volume of distribution at steady state in rat at 1 mg/kg, iv dosed as crystalline suspension in 20%HPBCD vehicle (20% hydroxypropyl-beta-cyclodextrin/80% water); type: ADME, organism-based; parameters: dose 1 mg/kg, route intravenous; settings: in vivo, read-out: Vdss
[34] = Cmax in rat at 5 mg/kg, po dosed as crystalline suspension in 20%HPBCD vehicle (20% hydroxypropyl-beta-cyclodextrin/80% water); type: ADME, organism-based; parameters: dose 5 mg/kg, route oral; settings: in vivo
[35] = AUC in rat at 5 mg/kg, po dosed as crystalline suspension in 20%HPBCD vehicle (20% hydroxypropyl-beta-cyclodextrin/80% water); type: ADME, organism-based; parameters: dose 5 mg/kg, route oral; settings: plasma
[36] = Oral bioavailability in rat at 5 mg/kg dosed as crystalline suspension in 20%HPBCD vehicle (20% hydroxypropyl-beta-cyclodextrin/80% water); type: ADME, organism-based; settings: in vivo
[37] = Cmax in rat at 25 mg/kg, po dosed as crystalline suspension in 20%HPBCD vehicle (20% hydroxypropyl-beta-cyclodextrin/80% water); type: ADME, organism-based; parameters: dose 25 mg/kg, route oral; settings: in vivo
[38] = AUC in rat at 25 mg/kg, po dosed as crystalline suspension in 20%HPBCD vehicle (20% hydroxypropyl-beta-cyclodextrin/80% water); type: ADME, organism-based; parameters: dose 25 mg/kg, route oral; settings: plasma
[39] = Oral bioavailability in rat at 25 mg/kg dosed as crystalline suspension in 20%HPBCD vehicle (20% hydroxypropyl-beta-cyclodextrin/80% water); type: ADME, organism-based; settings: in vivo
[40] = Oral bioavailability in mouse at 30 mg/kg dosed as crystalline suspension in 20%HPBCD vehicle (20% hydroxypropyl-beta-cyclodextrin/80% water); settings: in vivo
[41] = Dissociation constant, pKa of the compound at acidic pH; type: physicochemical
[42] = Thermodynamic solubility of the compound at 0.5 mg/ml after 24 hrs by shake flask method at pH 7.4; type: physicochemical; settings: buffer, read-out: Therm_solubility
[43] = AUC in mouse at 30 mg/kg, po dosed in 0.5% methylcellulose/0.2% Tween 80/99.3% water; type: ADME, organism-based; parameters: dose 30 mg/kg, route oral; settings: in vivo
[44] = Oral bioavailability in mouse at 30 mg/kg; type: ADME, organism-based; settings: in vivo
[45] = AUC in mouse at 30 mg/kg, po dosed as as solution; type: ADME, organism-based; parameters: dose 30 mg/kg, route oral; settings: plasma

SMILES: Nc1ncnc2c(C(=O)Nc3c(Cl)ccc(NS(=O)(=O)CCCF)c3F)csc12
- Cmax [1]: 7.93 µM
- AUC [2]: 84 µM·h
- bioavailability [3]: > 100%
- Cmax [4]: 73 µM
- AUC [5]: 867 µM·h
- bioavailability [6]: > 100%
- Cmax [7]: 162 µM
- Cmax [8]: 249 µM
- AUC [9]: 3250 µM·h
- IC50 (Cytochrome P450 2C9): 9000 nM
- IC50 [10]: > 25000 nM
- inhibition (INH) [11]: Not Active
- Activity (Salmonella typhimurium): Non-toxic
- TGI (COLO 205 [12]): 130%
- ED50 (COLO 205 [12]): 1.1 mg/kg
- ED90 (COLO 205 [12]): 6.2 mg/kg
- Activity (Mus musculus): Non-toxic
- inhibition (INH) [13]: Not Active
- IC50 [14]: 2 nM
- AUC [15]: 1680 µM·h
- bioavailability [16]: > 100%
- IC50 [17]: 0.18 nM
- IC50 [18]: 4.6 nM
- pKa [19]: 3.6
- solubility thermodynamic at 24 h [20]: 700 µg/mL (≈ 1520 µM)
- solubility thermodynamic at 24 h [21]: 10 µg/mL (≈ 21.6 µM)
- clearance [22]: 0.79 mL/min/kg
- Vd [23]: 0.12 L/kg
- fraction unbound [24]: 0.03
- logP [25]: 3.6
- IC50 [26]: 22 nM
- IC50 [27]: 73 nM
- Ratio IC50 (Homo sapiens [28]): 11
- Ratio IC50 (Homo sapiens [29]): 152
- EC50 [30]: 2 nM
- EC50 (COLO 205 [31]): 5 nM
- EC50 (HT-29): 24 nM
- EC50 (RKO): 2310 nM
- EC50 (NCI-H226): > 10000 nM
- clearance [32]: 0.19 mL/min/kg
- Vd [33]: 0.14 L/kg
- Cmax [34]: 44.5 µM
- AUC [35]: 651 µM·h
- bioavailability [36]: 68%
- Cmax [37]: 201 µM
- AUC [38]: 2970 µM·h
- bioavailability [39]: 62%
- bioavailability [40]: > 100%

SMILES: CCCS(=O)(=O)Nc1ccc(Cl)c(NC(=O)c2cccc3c(N)ncnc23)c1F
- IC50 [17]: 0.59 nM
- IC50 [18]: 9.5 nM

SMILES: CCCS(=O)(=O)Nc1ccc(F)c(C(=O)Nc2cnc3[nH]nc(OC)c3c2)c1F
- TGI (COLO 205 [12]): 76%
- ED50 (COLO 205 [12]): 25.2 mg/kg
- ED90 (COLO 205 [12]): 139 mg/kg
- pKa [41]: 0.7
- pKa [19]: 0.7
- solubility thermodynamic at 24 h [20]: 3 µg/mL (≈ 7.05 µM)
- solubility thermodynamic at 24 h [21]: 4 µg/mL (≈ 9.4 µM)
- solubility thermodynamic at 24 h [42]: 9 µg/mL (≈ 21.2 µM)

SMILES: CCCS(=O)(=O)Nc1ccc(F)c(NC(=O)c2cccc3c(N)ncnc23)c1F
- IC50 [17]: 1.8 nM
- IC50 [18]: 9.5 nM
- pKa [41]: 4.5
- pKa [19]: 4.5
- solubility thermodynamic at 24 h [20]: > 1000 µg/mL
- solubility thermodynamic at 24 h [21]: 1 µg/mL (≈ 2.37 µM)
- clearance [22]: 2.5 mL/min/kg
- Vd [23]: 0.4 L/kg
- AUC [43]: 290 µM·h
- bioavailability [44]: 71%
- fraction unbound [24]: 0.015
- logP [25]: 2.9
- AUC [45]: 331 µM·h
